Measured values: ChEMBL document CHEMBL1201862, “PubChem BioAssay data set” (2004)
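Results reflect a 48-hour exposure of cells in 96-well plates to compound at five concentrations. At the GI50, growth is halved.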 Active and inactive are the calls of the source. Cut-off read from the data, not from the text of the source: active = GI50 up to about 1.1 µM and inactive = higher.

Legend:
Assay in all cases: NCI anticancer screen, dose series, 48 h
COLO 205 = system: COLO 205
HL-60 = system: HL-60
UACC-62 = system: UACC-62
KM12 = system: KM12
RPMI-8226 = system: RPMI-8226
786-0 = system: 786-0
A549 = system: A549
OVCAR-3 = system: OVCAR-3
SNB-19 = system: SNB-19
UO-31 = system: UO-31
SK-MEL-5 = system: SK-MEL-5
SF-539 = system: SF-539
SF-295 = system: SF-295
M14 = system: M14
OVCAR-4 = system: OVCAR-4
CAKI-1 = system: CAKI-1
ACHN = system: ACHN
NCI-H23 = system: NCI-H23
HCT-116 = system: HCT-116
SF-268 = system: SF-268

Structure (SMILES)	GI50 (COLO 205)	GI50 (HL-60)	GI50 (UACC-62)	GI50 (KM12)	GI50 (RPMI-8226)	GI50 (786-0)	GI50 (A549)	GI50 (OVCAR-3)	GI50 (SNB-19)	GI50 (UO-31)	GI50 (SK-MEL-5)	GI50 (SF-539)	GI50 (SF-295)	GI50 (M14)	GI50 (OVCAR-4)	GI50 (CAKI-1)	GI50 (ACHN)	GI50 (NCI-H23)	GI50 (HCT-116)	GI50 (SF-268)
CC1=NN(C(=O)c2ccccc2O)C(=O)/C1=C/c1ccc([N+](=O)[O-])cc1	16.5 µM (inactive)	0.508 µM (active)	0.0603 µM (active)	0.161 µM (active)	1.88 µM (inactive)	0.299 µM (active)	0.0931 µM (active)	0.172 µM (active)	0.0782 µM (active)	0.103 µM (active)	0.239 µM (active)	0.0951 µM (active)	0.131 µM (active)	0.437 µM (active)	0.482 µM (active)	0.455 µM (active)	0.106 µM (active)	0.177 µM (active)	0.116 µM (active)	0.0855 µM (active)
CC(N)(Cc1c[nH]c2ccccc12)C(=O)O (stereo not given)	> 100 µM (inactive)	> 100 µM (inactive)	> 100 µM (inactive)	> 100 µM (inactive)	> 100 µM (inactive)	> 100 µM (inactive)	> 100 µM (inactive)	> 100 µM (inactive)	> 100 µM (inactive)	> 100 µM (inactive)	> 100 µM (inactive)	> 100 µM (inactive)	> 100 µM (inactive)	> 100 µM (inactive)	> 100 µM (inactive)	> 100 µM (inactive)	> 100 µM (inactive)	> 100 µM (inactive)	> 100 µM (inactive)	> 100 µM (inactive)
COc1ccc2nc3cc(Cl)ccc3c(Sc3ccc([N+](=O)[O-])cc3)c2c1	> 10 µM (inactive)	> 100 µM (inactive)	> 10 µM (inactive)	> 10 µM (inactive)	> 100 µM (inactive)	> 10 µM (inactive)	> 10 µM (inactive)	> 10 µM (inactive)	> 10 µM (inactive)	> 10 µM (inactive)	> 10 µM (inactive)	> 10 µM (inactive)	> 10 µM (inactive)	> 10 µM (inactive)	> 10 µM (inactive)	> 10 µM (inactive)	> 10 µM (inactive)	> 10 µM (inactive)	> 10 µM (inactive)	> 10 µM (inactive)
O=C1NC(Cc2ccc(O)cc2)C(=O)NC1Cc1ccc(O)cc1 (stereo not given)	> 100 µM (inactive)	> 100 µM (inactive)	> 100 µM (inactive)	> 100 µM (inactive)	> 100 µM (inactive)	> 100 µM (inactive)	> 100 µM (inactive)	> 100 µM (inactive)	> 100 µM (inactive)	> 100 µM (inactive)	> 100 µM (inactive)	> 100 µM (inactive)	> 100 µM (inactive)	> 100 µM (inactive)	> 100 µM (inactive)	> 100 µM (inactive)	> 100 µM (inactive)	> 100 µM (inactive)	> 100 µM (inactive)	> 100 µM (inactive)
CCOC(=O)/C(C(N)=O)=C(O)/C(O)=C(\Br)C(=O)c1ccccc1	17.3 µM (inactive)	0.0622 µM (active)	17.8 µM (inactive)	18.1 µM (inactive)	9.25 µM (inactive)	15.8 µM (inactive)	20.4 µM (inactive)	20.7 µM (inactive)	47 µM (inactive)	18.9 µM (inactive)	16.6 µM (inactive)	18.5 µM (inactive)	56.8 µM (inactive)	14.6 µM (inactive)	22 µM (inactive)	11.1 µM (inactive)	19.1 µM (inactive)	18.8 µM (inactive)	16.4 µM (inactive)	19.5 µM (inactive)
CCOC(=O)c1c(-c2ccc(OC)cc2)c(C#N)c(=S)n(C2OC(CO)C(O)C(O)C2O)c1-c1ccccc1 (stereo not given)	49.3 µM (inactive)	40.8 µM (inactive)	28.2 µM (inactive)	51.2 µM (inactive)	46.9 µM (inactive)	48.2 µM (inactive)	> 100 µM (inactive)	24.6 µM (inactive)	85.1 µM (inactive)	51.5 µM (inactive)	13.3 µM (inactive)	38.1 µM (inactive)	44.9 µM (inactive)	31.9 µM (inactive)	34.3 µM (inactive)	50.7 µM (inactive)	54.7 µM (inactive)	31.8 µM (inactive)	27.2 µM (inactive)	68.7 µM (inactive)
Clc1ncnc2c1ncn2CCCCCCCCCCCCn1cnc2c(Cl)ncnc21	15.6 µM (inactive)	2.7 µM (inactive)	13.9 µM (inactive)	15.5 µM (inactive)	2.13 µM (inactive)	17.7 µM (inactive)	11.7 µM (inactive)	11.2 µM (inactive)	14.7 µM (inactive)	13.1 µM (inactive)	4.83 µM (inactive)	14.4 µM (inactive)	15.4 µM (inactive)	15.3 µM (inactive)	11.1 µM (inactive)	3.4 µM (inactive)	14.5 µM (inactive)	2.49 µM (inactive)	10.7 µM (inactive)	14.3 µM (inactive)
O=C(CCCCCCCCCCc1ccccc1)c1c(O)cccc1O	23.8 µM (inactive)	25.1 µM (inactive)	20.7 µM (inactive)	18.4 µM (inactive)	34.7 µM (inactive)	17.7 µM (inactive)	27.7 µM (inactive)	27 µM (inactive)	20.2 µM (inactive)	21.1 µM (inactive)	16.1 µM (inactive)	18.1 µM (inactive)	21.3 µM (inactive)	20 µM (inactive)	25.3 µM (inactive)	29.5 µM (inactive)	28.1 µM (inactive)	18.9 µM (inactive)	22.7 µM (inactive)	23.8 µM (inactive)
NC(CCC(=O)O)C(=O)NC(Cc1ccc(N(CCCl)CCCl)cc1)C(=O)O (stereo not given)	> 100 µM (inactive)	> 100 µM (inactive)	> 100 µM (inactive)	> 100 µM (inactive)	> 100 µM (inactive)	> 100 µM (inactive)	> 100 µM (inactive)	> 100 µM (inactive)	> 100 µM (inactive)	> 100 µM (inactive)	> 100 µM (inactive)	> 100 µM (inactive)	> 100 µM (inactive)	> 100 µM (inactive)	> 100 µM (inactive)	81.8 µM (inactive)	> 100 µM (inactive)	> 100 µM (inactive)	> 100 µM (inactive)	> 100 µM (inactive)
CCOC(=O)/C(=C\c1ccc[nH]1)C(=O)c1ccccc1	> 100 µM (inactive)	23.3 µM (inactive)	67.6 µM (inactive)	65.9 µM (inactive)	82 µM (inactive)	> 100 µM (inactive)	> 100 µM (inactive)	> 100 µM (inactive)	> 100 µM (inactive)	> 100 µM (inactive)	> 100 µM (inactive)	> 100 µM (inactive)	> 100 µM (inactive)	> 100 µM (inactive)	> 100 µM (inactive)	> 100 µM (inactive)	> 100 µM (inactive)	> 100 µM (inactive)	> 100 µM (inactive)	91 µM (inactive)
Cn1c(NNc2ccccc2)cc(=O)[nH]c1=O	36.9 µM (inactive)	32.7 µM (inactive)	36.1 µM (inactive)	15.2 µM (inactive)	35.3 µM (inactive)	20.5 µM (inactive)	37.7 µM (inactive)	23.2 µM (inactive)	> 100 µM (inactive)	28.2 µM (inactive)	25.6 µM (inactive)	29.3 µM (inactive)	21.8 µM (inactive)	33.9 µM (inactive)	55.8 µM (inactive)	29.9 µM (inactive)	4.25 µM (inactive)	> 100 µM (inactive)	42.5 µM (inactive)	34.1 µM (inactive)
COc1cc(/C=C2/SC(c3ccccc3)N(c3ccc(NC(C)=O)cc3)C2=O)cc(OC)c1OC (stereo not given)	> 100 µM (inactive)	66.4 µM (inactive)	> 100 µM (inactive)	91.4 µM (inactive)	36.8 µM (inactive)	> 100 µM (inactive)	> 100 µM (inactive)	> 100 µM (inactive)	> 100 µM (inactive)	48.8 µM (inactive)	34.4 µM (inactive)	> 100 µM (inactive)	61.2 µM (inactive)	> 100 µM (inactive)	> 100 µM (inactive)	> 100 µM (inactive)	> 100 µM (inactive)	> 100 µM (inactive)	> 100 µM (inactive)	75.2 µM (inactive)
CCCCCCCCCCCCCCCC(=O)OCC1OC(OC)C(NC(=O)N(CCCl)N=O)C(O)C1O (stereo not given)	19.2 µM (inactive)	4.57 µM (inactive)	2.02 µM (inactive)	19 µM (inactive)	21.3 µM (inactive)	2.01 µM (inactive)	9.68 µM (inactive)	19.6 µM (inactive)	14.8 µM (inactive)	24 µM (inactive)	21.1 µM (inactive)	3.32 µM (inactive)	4.48 µM (inactive)	16.8 µM (inactive)	20 µM (inactive)	14.5 µM (inactive)	13.4 µM (inactive)	11.5 µM (inactive)	13 µM (inactive)	3.34 µM (inactive)
Nc1nc(Cl)cc(NCC2(CO)CCCCC2)n1	> 100 µM (inactive)	> 100 µM (inactive)	> 100 µM (inactive)	> 100 µM (inactive)	97.5 µM (inactive)	> 100 µM (inactive)	> 100 µM (inactive)	> 100 µM (inactive)	> 100 µM (inactive)	> 100 µM (inactive)	44 µM (inactive)	> 100 µM (inactive)	> 100 µM (inactive)	> 100 µM (inactive)	80.7 µM (inactive)	> 100 µM (inactive)	> 100 µM (inactive)	48.9 µM (inactive)	> 100 µM (inactive)	> 100 µM (inactive)
